In the NIST ThermoML archive (doi:10.1021/je0601457):

Assay: xn = mol fraction of the nth substance listed

Cc1cnccn1 [2-methylpyrazine] + O=C=O
Fluid (supercritical or subcritical phases), Linear displacement technique
Settings	mass density [kg/m3]
294.85 K, 5860 kPa, x1 = 0.033	869
294.85 K, 6830 kPa, x1 = 0.017	749
294.85 K, 7760 kPa, x1 = 0.033	904
294.85 K, 8900 kPa, x1 = 0.017	777
294.85 K, 13000 kPa, x1 = 0.017	821
294.85 K, 13690 kPa, x1 = 0.033	969
294.95 K, 2450 kPa, x1 = 0.857	935
294.95 K, 3790 kPa, x1 = 0.857	942
294.95 K, 6860 kPa, x1 = 0.857	947
294.95 K, 11520 kPa, x1 = 0.857	950
295.05 K, 3900 kPa, x1 = 0.624	948
295.05 K, 7000 kPa, x1 = 0.624	952
295.05 K, 9660 kPa, x1 = 0.624	956
295.05 K, 14760 kPa, x1 = 0.624	965
295.35 K, 5310 kPa, x1 = 0.156	908
295.35 K, 7620 kPa, x1 = 0.156	910
295.35 K, 9620 kPa, x1 = 0.156	911
295.45 K, 5450 kPa, x1 = 0.264	901
295.45 K, 7900 kPa, x1 = 0.264	911
295.45 K, 12450 kPa, x1 = 0.264	926
295.45 K, 16590 kPa, x1 = 0.264	934
295.55 K, 6790 kPa, x1 = 0.122	998
295.55 K, 8790 kPa, x1 = 0.122	1010
295.55 K, 10590 kPa, x1 = 0.122	1019
295.55 K, 14410 kPa, x1 = 0.122	1036
295.85 K, 7140 kPa, x1 = 0.081	779
295.85 K, 9760 kPa, x1 = 0.081	781
295.85 K, 13170 kPa, x1 = 0.081	781
296.15 K, 7590 kPa, x1 = 0.339	964
296.15 K, 10550 kPa, x1 = 0.339	969
296.15 K, 16100 kPa, x1 = 0.339	976
296.35 K, 6310 kPa, x1 = 0.023	607
296.35 K, 6660 kPa, x1 = 0.023	614
296.35 K, 8930 kPa, x1 = 0.023	642
297.25 K, 5790 kPa, x1 = 0.062	854
297.25 K, 7550 kPa, x1 = 0.062	873
297.25 K, 9550 kPa, x1 = 0.062	894
297.25 K, 12830 kPa, x1 = 0.062	914
298.85 K, 6860 kPa, x1 = 0.039	804
298.85 K, 8520 kPa, x1 = 0.039	831
298.85 K, 11690 kPa, x1 = 0.039	873
301.55 K, 7930 kPa, x1 = 0.023	578
301.55 K, 10070 kPa, x1 = 0.023	604
301.55 K, 11520 kPa, x1 = 0.023	620
304.15 K, 6790 kPa, x1 = 0.156	795
304.15 K, 8030 kPa, x1 = 0.156	905
304.15 K, 10210 kPa, x1 = 0.156	906
304.15 K, 12210 kPa, x1 = 0.156	911
304.45 K, 7140 kPa, x1 = 0.091	913
304.45 K, 7830 kPa, x1 = 0.122	970
304.45 K, 8660 kPa, x1 = 0.091	927
304.45 K, 10170 kPa, x1 = 0.091	940
304.45 K, 10660 kPa, x1 = 0.122	989
304.45 K, 13690 kPa, x1 = 0.122	1006
304.55 K, 5690 kPa, x1 = 0.264	882
304.55 K, 6660 kPa, x1 = 0.264	885
304.55 K, 10380 kPa, x1 = 0.264	896
304.55 K, 13620 kPa, x1 = 0.264	907
305.05 K, 3620 kPa, x1 = 0.624	922
305.05 K, 5000 kPa, x1 = 0.624	926
305.05 K, 7480 kPa, x1 = 0.624	931
305.05 K, 10860 kPa, x1 = 0.624	937

Liquid, linear displacement
Settings	mass density [kg/m3]
294.85 K, x1 = 0.017	721
294.85 K, x1 = 0.033	864
294.95 K, x1 = 0.857	930
295.05 K, x1 = 0.624	944
295.35 K, x1 = 0.156	906
295.45 K, x1 = 0.264	883
295.55 K, x1 = 0.122	947
295.85 K, x1 = 0.081	779
296.15 K, x1 = 0.339	928
296.35 K, x1 = 0.023	599
297.25 K, x1 = 0.062	845
298.85 K, x1 = 0.039	787
301.55 K, x1 = 0.023	549
304.15 K, x1 = 0.156	901
304.45 K, x1 = 0.091	901
304.45 K, x1 = 0.122	954
304.55 K, x1 = 0.264	881
